# Experimental data reported in BindingDB's records for doi:10.1021/jm050738x (University of Tokyo, 2006).
# pIC50: −log10 of the molar value.
# Test: Antagonist activity assessed by differentiation of 1,25-D3-induced HL60 cells
row,Compound,pIC50
1,C=C1/C(=C\C=C2/CCC[C@@]3(C)C2CC[C@@H]3[C@H](C)C[C@H]2C[C@](C)(O)C(=O)N2Cc2ccc(OC)cc2)C[C@@H](O)C[C@@H]1O (some centres not stated),6.18
2,"C=C1/C(=C\C=C2/CCC[C@]3(C)[C@@H]([C@H](C)C[C@H]4C[C@](C)(O)C(=O)N4CCCc4ccccc4)CC[C@@H]23)C[C@@H](O)C[C@@H]1O [(3S,5S)-5-((R)-2-((1R,3aS,7aR)-4-(2-((3S,5R)-3,5-dihydroxy-2-methylenecyclohexylidene)ethylidene)-7a-methyl-octahydro-1H-inden-1-yl)propyl)-3-hydroxy-3-methyl-1-(3-phenylpropyl)pyrrolidin-2-one]",5.66
3,"C=C1/C(=C\C=C2/CCC[C@]3(C)[C@@H]([C@H](C)C[C@H]4C[C@](C)(O)C(=O)N4CCc4ccccc4)CC[C@@H]23)C[C@@H](O)C[C@@H]1O [(3S,5S)-5-((R)-2-((1R,3aS,7aR)-4-(2-((3S,5R)-3,5-dihydroxy-2-methylenecyclohexylidene)ethylidene)-7a-methyl-octahydro-1H-inden-1-yl)propyl)-3-hydroxy-3-methyl-1-phenethylpyrrolidin-2-one]",6.68

# The remaining lines, values ahead:
row,pIC50,Compound
1,< 6.00,C=C1/C(=C\C=C2/CCC[C@@]3(C)C2CC[C@@H]3[C@H](C)C[C@H]2C[C@](C)(O)C(=O)N2C(C)C)C[C@@H](O)C[C@@H]1O (some centres not stated)
2,< 5.70,"C=C1/C(=C\C=C2/CCC[C@]3(C)[C@@H]([C@H](C)C[C@H]4C[C@@](C)(O)C(=O)N4CCc4ccccc4)CC[C@@H]23)C[C@@H](O)C[C@@H]1O [(3R,5S)-5-((R)-2-((1R,3aS,7aR,E)-4-((Z)-2-((3S,5R)-3,5-dihydroxy-2-methylenecyclohexylidene)ethylidene)-7a-methyloctahydro-1H-inden-1-yl)propyl)-3-hydroxy-3-methyl-1-phenethylpyrrolidin-2-one]"
3,6.15,"C=C1/C(=C\C=C2/CCC[C@]3(C)[C@@H]([C@H](C)C[C@H]4C[C@](C)(O)C(=O)N4Cc4ccccc4)CC[C@@H]23)C[C@@H](O)C[C@@H]1O [(3S,5S)-1-benzyl-5-((R)-2-((1R,3aS,7aR)-4-(2-((3S,5R)-3,5-dihydroxy-2-methylenecyclohexylidene)ethylidene)-7a-methyl-octahydro-1H-inden-1-yl)propyl)-3-hydroxy-3-methylpyrrolidin-2-one]"
4,6.41,"C=C1/C(=C\C=C2/CCC[C@]3(C)[C@@H]([C@H](C)C[C@H]4C[C@](C)(O)C(=O)N4CCCCc4ccccc4)CC[C@@H]23)C[C@@H](O)C[C@@H]1O [(3S,5S)-5-((R)-2-((1R,3aS,7aR)-4-(2-((3S,5R)-3,5-dihydroxy-2-methylenecyclohexylidene)ethylidene)-7a-methyl-octahydro-1H-inden-1-yl)propyl)-3-hydroxy-3-methyl-1-(4-phenylbutyl)pyrrolidin-2-one]"
